From US8940774B2, “Tris-Quaternary Ammonium Salts and Methods for Modulating Neuronal Nicotinic Acetylcholine Receptors” (University of Kentucky Research Foundation, priority 2005, dated 2015) come the findings set out here.

One may read the inhibition as the change of the read-out against control, counted positive when it falls.

The target in assay [1] is T1, α7-type neuronal nicotinic acetylcholine receptors (Rattus norvegicus, UniProt Q05941).
T1 construct: from tissue; host or cells: rat brain membranes (whole brain without cortex, striatum and cerebellum)
T1 sequence (Q05941 23-502): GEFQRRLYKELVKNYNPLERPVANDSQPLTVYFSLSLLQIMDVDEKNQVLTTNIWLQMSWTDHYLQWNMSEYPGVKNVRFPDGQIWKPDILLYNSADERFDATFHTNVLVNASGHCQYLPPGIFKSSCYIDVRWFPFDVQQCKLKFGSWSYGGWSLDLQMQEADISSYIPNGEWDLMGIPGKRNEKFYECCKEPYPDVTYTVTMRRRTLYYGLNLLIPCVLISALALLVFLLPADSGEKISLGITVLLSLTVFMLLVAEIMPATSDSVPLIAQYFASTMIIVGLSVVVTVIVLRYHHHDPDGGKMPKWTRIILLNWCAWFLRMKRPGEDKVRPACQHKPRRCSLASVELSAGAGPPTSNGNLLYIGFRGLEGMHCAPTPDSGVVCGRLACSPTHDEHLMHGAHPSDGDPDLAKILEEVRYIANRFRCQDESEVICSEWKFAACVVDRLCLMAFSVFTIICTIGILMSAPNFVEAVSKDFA
Kind of assay: Inhibition of [3H]Methyllycaconitine (MLA) binding assay, rat brain membranes. The note with it: for inhibition at 0.1 µM: read-out: Inhibition of [3H]MLA binding. Here is the method:
Rat brain was dissected into the whole brain tissue without cortex, striatum and cerebellum and was frozen in liquid nitrogen and stored at −70° C. until use. The brain tissue was homogenized with a Tekmar Polytron (setting 40) in 20 volumes of ice-cold hypotonic buffer (2 mM HEPES, 14.4 mM NaCl, 0.15 mM KCl, 0.2 mM CaCl2 and 0.1 mM MgSO4, pH=7.5). The homogenate was incubated at 37° C. for 10 minutes and centrifuged at 25,000 g for 15 minutes at […] The pellet was washed 3 times more by resuspension in 20 volumes of the same buffer and centrifugation at the above parameters. The final pellet was stored at −20° C. under 4.6 mL of the incubation buffer and was suspended just before the incubation with radioligand.
The binding of [^3H]MLA to probe α7-type neuronal nicotinic acetylcholine receptors was measured using a modification of the method of Davies at al., “Characterisation of the binding of [^3H]methyllycaconitine (MLA): a radioligand for labelling α7-type neuronal nicotinic acetylcholine receptors,” Neuropharmacology, 38, 679-690 (1999). [^3H]MLA (25.4 Ci/mmol) was purchased from Tocris Cookson Ltd., Bristol, U.K. Binding was performed in duplicate, in a final volume of 250 μL of the incubation medium, containing 20 mM HEPES, 144 mM NaCl, 1.5 mM KCl, 2 mM CaCl2, 1 mM MgSO4 and 0.05% BSA, pH=7.5. Reaction was initiated by the addition of 100 μL of membrane suspension to the samples containing a desired concentration of test compounds and […] [^3H]MLA (final concentration) and incubated for 2 hours it room temperature. Total binding was measured in the absence of unlabelled ligand, and nonspecific binding was determined by the presence of 1 μM unlabelled MLA. The binding reaction was terminated by dilution of samples with 3 mL of ice-cold incubation buffer followed by immediate filtration through glass fiber filters (S&S, grade #32, presoaked in 0.5% polyethylenimine) using a Brandel harvester system. Filters were rinsed three times with 3 mL of ice-cold buffer, transferred to scintillation vials and 4 mL of scintillation cocktail was added. Protein was measured using the Bradford dye-binding procedure with bovine serum albumin as the standard.
The tris-quaternary ammonium salts were evaluated for their ability to displace [^3H]MLA binding from rat brain membranes.
(§1) Data are % inhibition at 100 nM concentration of analog for at least 1-3 independent experiments. Specific binding in the [^3H]NIC binding assay is calculated at the difference between the total binding of [^3H]NIC and nonspecific binding in the presence of 10 μM cold nicotine. Specific binding for the [^3H]MLA binding assay is calculated as the difference between the total binding of 2.5 nM [^3H]MLA to the receptors alone and its nonspecific binding in the presence of 1 μM cold MLA. Analog-induced inhibition of nicotine-evoked [^3H]DA release is calculated as a percent of that in the absence of analog.

The target of assay [2] is T2, Rat Striatal Nicotinic Receptors (Rattus norvegicus, UniProt P09483+P12390).
T2 construct: from tissue; host or cells: rat striatal membranes
T2 sequence (P09483 31-630): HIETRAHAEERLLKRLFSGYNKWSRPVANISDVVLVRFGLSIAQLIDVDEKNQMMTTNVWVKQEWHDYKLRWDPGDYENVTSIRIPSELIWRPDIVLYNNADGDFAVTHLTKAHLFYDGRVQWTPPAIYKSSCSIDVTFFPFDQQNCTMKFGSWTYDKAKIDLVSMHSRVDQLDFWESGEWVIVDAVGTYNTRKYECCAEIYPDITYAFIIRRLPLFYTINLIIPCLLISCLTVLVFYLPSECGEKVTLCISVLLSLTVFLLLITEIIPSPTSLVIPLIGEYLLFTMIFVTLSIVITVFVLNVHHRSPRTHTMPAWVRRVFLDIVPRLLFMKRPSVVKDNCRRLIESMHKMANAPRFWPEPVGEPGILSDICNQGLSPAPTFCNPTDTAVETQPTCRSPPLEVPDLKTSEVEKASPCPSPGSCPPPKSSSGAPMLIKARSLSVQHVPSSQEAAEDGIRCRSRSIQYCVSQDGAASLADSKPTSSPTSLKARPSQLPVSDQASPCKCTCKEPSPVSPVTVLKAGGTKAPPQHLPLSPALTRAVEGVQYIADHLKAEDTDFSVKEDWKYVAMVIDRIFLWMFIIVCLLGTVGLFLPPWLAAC
T2 sequence (P12390 25-500): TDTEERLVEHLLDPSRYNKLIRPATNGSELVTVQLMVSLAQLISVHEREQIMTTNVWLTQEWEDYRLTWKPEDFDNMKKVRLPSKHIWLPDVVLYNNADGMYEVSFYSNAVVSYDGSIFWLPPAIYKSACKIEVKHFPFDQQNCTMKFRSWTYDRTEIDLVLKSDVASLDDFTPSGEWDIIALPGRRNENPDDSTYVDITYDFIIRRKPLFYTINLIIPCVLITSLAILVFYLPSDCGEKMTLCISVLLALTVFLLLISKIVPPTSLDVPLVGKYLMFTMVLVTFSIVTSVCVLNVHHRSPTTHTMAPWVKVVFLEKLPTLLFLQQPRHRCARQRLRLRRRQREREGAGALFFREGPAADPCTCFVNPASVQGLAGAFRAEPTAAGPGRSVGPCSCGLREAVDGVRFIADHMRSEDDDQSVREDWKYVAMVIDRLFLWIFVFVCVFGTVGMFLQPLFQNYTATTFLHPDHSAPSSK
Kind of assay: Inhibition of [3H]Nicotine (NIC) binding assay, rat striatal membranes. The note with it: % inhibition at 100 nM concentration of analog, 3 nM [3H]NIC. Here is the method: Striata from two rats were dissected, pooled, and homogenized with a Tekmar polytron in 10 vol of ice-cold modified Krebs-HEPES buffer (20 mM HEPES, 118 mM NaCl, 4.8 mM, KCl, 2.5 mM CaCl2, 1.2 mM MgSO4, adjusted to pH 7.5). The homogenates were incubated at 37° C. for 5 minutes and centrifuged at 15,000 g for 20 minutes. The pellet was resuspended in 10 volumes of ice-cold MilliQ water, incubated for 5 minutes at 37° C., and centrifuged at 15,000 g for 20 minutes. The second pellet was then resuspended in 10 volumes of fresh ice-cold 10% Krebs-HEPES buffer, incubated at 37° C., and centrifuged at 15,000 g for 20 minutes. The latter sequence of resuspension, incubation and centrifugation was repeated. The pellet was frozen under fresh 10% Krebs-HEPES buffer and stored at −40° C. until assay. Upon assay, the pellet was resuspended in Krebs-HEPES buffer, incubated at 37° C. for 5 minutes, and centrifuged at 15,000 g for 20 minutes. The final pellet was resuspended in 3.6 mL ice-cold MilliQ water which provided for approximately 200 μg protein per 100 μL aliquot. Competition assays were performed in duplicate in a final volume of 200 μL Krebs-HEPES buffer containing […] Tris buffer (pH 7.5 at 4° C.). Reactions were initiated by addition of 100 μL of membrane suspension to 3 nM [^3H]NIC (50 μL) and one of at least nine concentrations of analog (50 μL). After a 90 minute incubation at 4° C., reactions were terminated by dilution of the samples with 3 mL of ice-cold Krebs-HEPES buffer followed immediately by filtration through Whatman GF/B glass fiber filters (presoaked in 0.5% polyethyleneimine) using a Brandel Cell Harvester. Filters were rinsed three times with 3 mL of ice-cold Krebs-HEPES buffer, transferred to scintillation vials, and 5 mL scintillation cocktail (Research Products international Corp., Mt. Prospect, Ill.) added. Nonspecific binding determined in triplicate was defined as binding in the presence of 10 μM NIC. Binding parameters were determined using the weighted, least squares non-linear regression. The tris-quaternary ammonium salts were evaluated for their ability to displace [^3H]NIC binding from rat striatal membranes.
as §1

Assay [3] concerns NIC-evoked [3H]DA release from rat striatal slices. As to the kind of experiment: Nicotine-evoked [3H]dopamine release assay, superfused rat striatal slices. In kind it is cell-based. The note with it: 100 nM analog superfused 60 minutes prior to NIC (10 μM), percent of that in the absence of analog. Here is the method:
Rat striatal slices (500 μm thickness, 6-8 mg wet weight) were incubated for 30 minutes in Krebs buffer (118 mM NaCl, 4.7 mM KCl, 1.2 mM MgCl2, 1.0 mM NaH2PO4, 1.3 mM CaCl2, 11.1 mM glucose, 25 mM NaHCO3, 0.11 mM L-ascorbic acid and 0.004 mM disodium EDTA; pH 7.4, and saturated with 95% O2/5% CO2) in a metabolic shaker at 34° C. Slices were rinsed with 15 mL of fresh buffer and incubated for an additional 30 minutes in fresh buffer containing 0.1 μM [^3H]dopamine (DA; 6 slices/3 mL). Subsequently, slices were rinsed with 15 mL of fresh buffer and transferred to a glass superfusion chamber. Slices were superfused (1.0 mL/min) for 60 minutes with Krebs buffer containing nomifensine (10 μM) and pargyline (10 μM) and maintained at 34° C., pH 7.4 with continual aeration (95% O2/5% CO2). Two five minute samples (5 mL each) were collected to determine basal outflow of [^3H]DA. Analogs were added to the superfusion buffer after the collection of the second sample and remained in the buffer until 12 consecutive five minute samples were collected. Subsequently, S-(−)-nicotine (10 μM) was added to the buffer and an additional 12 consecutive five minute samples were collected. At the end of the experiment, each slice was solubilized and the [^3H] content of the tissue determined.
Radioactivity in the superfusate and tissue samples were determined by liquid scintillation spectroscopy. Fractional release for tritium collected in each sample was divided by the total tritium present at the time of sample collection and was expressed as a percentage of total tritium. Basal [^3H] outflow was calculated from the average of the tritium collected in the two five-minute samples just before addition of the analog. The sum of the increase in collected tritium resulting from either exposure to the test compound or exposure to S-(−)-nicotine in the absence cod presence of the test compound equaled total [^3H] overflow. [^3H] Overflow was calculated by subtracting the [^3H] outflow during an equivalent period of prestimulation from the values in samples collected during and after drug exposure. Inasmuch as the radiolabelled compounds were not separated and identified, the tritium in the superfusate is referred to as either [^3H] outflow or [^3H] overflow, rather than [^3H]DA. [^3H] Overflow primarily represents [^3H]DA in the presence of nomifesine and pargyline in the superfusion buffer. […]
Analogs were also evaluated for their ability to inhibit NIC evoked [^3H]DA release. In these experiments, the striatal slices were superfused for 60 minutes with 100 nM concentration of the analogs prior to NIC (10 μM) exposure. Antagonist activity was evaluated by comparing the NIC-evoked [^3H] overflow in the absence and presence of the analogs. The relative order of potency of the analogs for inhibition of NIC-evoked [^3H]DA release from rat striatal slices is illustrated in Table 1.
as §1

[4] abbreviates: % inhibition at 100 nM concentration of analog, rat brain membranes, 2.5 nM [3H]MLA.

Like-named read-outs stand apart in the source and are kept apart here.

With `Cc1ccc[n+](CCCC#Cc2cc(C#CCCC[n+]3cccc(C)c3)cc(C#CCCC[n+]3cccc(C)c3)c2)c1` [GZ550A, 1,3,5-tris-[5-(3-picolinium)-pent-1-ynyl]-benzene tribromide], the inhibition at 0.1 µM worked out at 0% in assay [1] (setting [4]), 10 ± 1.9% in assay [2] and 46% in assay [3].
In the case of `C(#Cc1cc(C#CCCC[n+]2cccc(-c3ccccc3)c2)cc(C#CCCC[n+]2cccc(-c3ccccc3)c2)c1)CCC[n+]1cccc(-c2ccccc2)c1` [GZ550B, 1,3,5-tris-[5-(3-phenyl-pyridinium)-pent-1-ynyl]-benzene tribromide], the values for the inhibition at 0.1 µM in assay [1] (setting [4]), in assay [2] and in assay [3] were 39 ± 2.2%, 15 ± 0.9% and 49%, respectively.
The like results for `C(#Cc1cc(C#CCCC[n+]2cccc3ccccc32)cc(C#CCCC[n+]2cccc3ccccc32)c1)CCC[n+]1cccc2ccccc21` [GZ552A, 1,3,5-tris-[5-(1-quinolinium)-pent-1-ynyl]-benzene tribromide] were, in that order, 21 ± 6%, 7 ± 3.8% and 72%.
In the case of `C(#Cc1cc(C#CCCC[n+]2ccc3ccccc3c2)cc(C#CCCC[n+]2ccc3ccccc3c2)c1)CCC[n+]1ccc2ccccc2c1` [GZ552B, 1,3,5-tris-[5-(2-isoquinolinium)-pent-1-ynyl]-benzene tribromide], the inhibition at 0.1 µM in assay [1] (setting [4]) was 4.5 ± 2.6%; in assay [2], 9.2 ± 5%; in assay [3] it was 49%.
The like results for `Cc1cc(C)c[n+](CCCC#Cc2cc(C#CCCC[n+]3cc(C)cc(C)c3)cc(C#CCCC[n+]3cc(C)cc(C)c3)c2)c1` [GZ553A, 1,3,5-tris-[5-(3,5-lutidinium)-pent-1-ynyl]-benzene tribromide] were, in that order, 0%, 8.9 ± 2.9% and 31%.
The like results for `Cc1cc[n+](CCCC#Cc2cc(C#CCCC[n+]3ccc(C)c(C)c3)cc(C#CCCC[n+]3ccc(C)c(C)c3)c2)cc1C` [GZ553B, 1,3,5-tris-[5-(3,4-lutidinium)-pent-1-ynyl]-benzene tribromide] were, in that order, 1.8 ± 1.8%, 4 ± 1.4% and 0%.
For the compound `Cc1cccc[n+]1CCCC#Cc1cc(C#CCCC[n+]2ccccc2C)cc(C#CCCC[n+]2ccccc2C)c1` [GZ554A, 1,3,5-tris-[5-(2-picolinium)-pent-1-ynyl]-benzene tribromide], the figures for the inhibition at 0.1 µM in assay [1] (setting [4]), in assay [2] and in assay [3] were 0%, 4.5 ± 2% and 68%, respectively.
`Cc1cc[n+](CCCC#Cc2cc(C#CCCC[n+]3ccc(C)cc3)cc(C#CCCC[n+]3ccc(C)cc3)c2)cc1` [GZ554B, 1,3,5-tris-[5-(4-picolinium)-pent-1-ynyl]-benzene tribromide]: the inhibition at 0.1 µM in assay [1] (setting [4]) is 0%; in assay [2] it was 21 ± 4.5%; in assay [3] it was 34%.
The like results for `Cc1ccc[n+](CCCCCc2cc(CCCCC[n+]3cccc(C)c3)cc(CCCCC[n+]3cccc(C)c3)c2)c1` [GZ555A, 1,3,5-tris-[5-(3-picolinium)-pentyl]-benzene tribromide] were, in that order, 1.2 ± 1.2%, 14 ± 6.1% and 42%.
The like results for `Cc1cccc[n+]1CCCCCc1cc(CCCCC[n+]2ccccc2C)cc(CCCCC[n+]2ccccc2C)c1` [GZ555B, 1,3,5-tris-[5-(2-picolinium)-pentyl]-benzene tribromide] were, in that order, 0%, 8.6 ± 7.2% and 25%.
Consider `Cc1cc[n+](CCCCCc2cc(CCCCC[n+]3ccc(C)cc3)cc(CCCCC[n+]3ccc(C)cc3)c2)cc1` [GZ555C, 1,3,5-tris-[5-(4-picolinium)-pentyl]-benzene tribromide], for which the values for the inhibition at 0.1 µM in assay [1] (setting [4]), in assay [2] and in assay [3] were 0%, 6 ± 3.4% and 37 ± 17%, respectively.
With `c1ccc2c(c1)ccc[n+]2CCCCCc1cc(CCCCC[n+]2cccc3ccccc32)cc(CCCCC[n+]2cccc3ccccc32)c1` [GZ556A, 1,3,5-tris-[5-(1-quinolinium)-pentyl]-benzene tribromide], the results for the inhibition at 0.1 µM in assay [1], in assay [2] and in assay [3] were 6.8 ± 0.9%, 5.7 ± 5.7% and 8 ± 6.4%, respectively.
For the compound α-bungarotoxin [reference compound], the Ki in assay [1] (read-out: K1 value, displacement of [3H]MLA binding) is 28.6 ± 5.4 nM.
